Assay results reported in patent US4577020A, “Aminoalkyl and aminoalkenyl triazoles as anti-psychotic agents” (The Upjohn Company, priority 1983, dated 1986).

Assays:
[1] = molecular target: T1, ^3 H-spiroperidol binding (Mus musculus, UniProt P61168); test: In vivo spiroperidol binding assay
T1 construct: from tissue; host or cells: brain of ICR mice: striata, septum, most of the olfactory tubercles, small part of ventral cortex (in vivo labelling)
Protocol: D. In vivo spiroperidol Binding Assay
ICR strain mice, weighing about 20 gm, are given the test drugs or vehicle, i.p. or s.c., in 0.10 ml. Drug solutions are in saline, 0.1M citric acid, or 33% propylene glycol. After 1 hour, mice are given 66 micro-Curies (μCi)/kg of ^3 H-spiroperidol (specific activity […]) i.v. in 0.10 ml of saline. Four to 6 mice are given each test drug, and 4 of those which are successfully i.v. injected with the label are used for the rest of the experiment. At 3 hours (2 hours after the ^3 H-spiroperidol injection), the mice are sacrificed and the brains rapidly dissected. A section of brain tissue including the striata, septum, most of the olfactory tuberoles, and a small associated portion of the ventral edge of the cortex, is removed to dry ice. The tissues are weighed (usually 60-70 mg) and then dissolved in 1.0 ml of Protosol (New England Nuclear) overnight at about 40° C. The solutions are then neutralized with 80 μl of 6N HCl or 200 μl of 2.4N HCl, 15 ml of ACS counting solution (Amersham) is added, and the samples are counted by liquid scintillation spectroscopy. The amount of bound ^3 H-spiroperiodol, in cpm/mg tissue, is calculated for each test group and compared to the control group using the two-tailed Student's t test.
Of these tests, the in vivo spiroperidol binding assay is the most important indicator of antipsychotic activity. […]

[2] = standard laboratory test which indicates analgesic activity
Description: However, the preferred use of the compounds of this invention is as anti-psychotic agents.

T1 sequence (P61168 whole entry): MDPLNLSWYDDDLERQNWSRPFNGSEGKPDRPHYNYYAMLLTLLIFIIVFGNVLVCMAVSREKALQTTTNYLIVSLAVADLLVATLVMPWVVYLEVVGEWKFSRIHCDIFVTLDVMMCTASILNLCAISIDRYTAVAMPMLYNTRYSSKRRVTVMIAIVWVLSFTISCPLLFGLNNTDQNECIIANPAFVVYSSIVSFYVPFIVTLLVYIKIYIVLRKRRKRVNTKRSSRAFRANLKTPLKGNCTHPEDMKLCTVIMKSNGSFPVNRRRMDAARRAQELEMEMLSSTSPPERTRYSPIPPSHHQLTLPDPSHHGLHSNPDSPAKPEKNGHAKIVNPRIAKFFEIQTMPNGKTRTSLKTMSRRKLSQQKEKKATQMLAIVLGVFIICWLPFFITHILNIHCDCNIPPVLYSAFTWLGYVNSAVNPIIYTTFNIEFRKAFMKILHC

effectiveness in the in vivo spiroperidol binding assay (in words) [1] | Structure (SMILES) | analgesic activity (in words) [2]
most effective | Cc1nnc(/C=C/CN2CCN(c3ccccc3)CC2)n1-c1ccccc1 [Example 3, (E)-1-[3-(5-methyl-4-phenyl-4H-1,2,4-triazol-3-yl)-2-propenyl]-4-phenyl-piperazine] | 
most effective | CN(CCCc1nncn1-c1ccccc1)CCc1ccccc1 [N-methyl-4-phenyl-N-(2-phenylethyl)-4H-1,2,4-triazole-3-propanamine] | 
 | Cc1nnc(C(C)(O)CCN(C)CCc2ccccc2)n1-c1ccccc1 (stereo not drawn) [Example 2] | effective
